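Method: 48-hour compound exposure of cells in 96-well plates, five concentrations, linear interpolation of endpoints. Definition used: TGI = concentration required for complete inhibition of growth.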
How the values were obtained:
Assay in all cases: NCI tumour cell line growth inhibition, 48 h
[1] = system: NCI-H522 lung
[2] = system: SNB-75 CNS
[3] = system: OVCAR-4 ovarian
[4] = system: ACHN renal
[5] = system: SF-268 CNS
[6] = system: MDA-MB-231 breast
[7] = system: OVCAR-3 ovarian
[8] = system: MCF7 breast
[9] = system: MOLT-4 leukemia
[10] = system: SK-MEL-28 melanoma
[11] = system: SN12C renal
[12] = system: CAKI-1 renal
[13] = system: SF-295 CNS
[14] = system: EKVX NSCLC
[15] = system: IGROV1 ovarian
[16] = system: A498 renal
[17] = system: LOX IMVI melanoma
[18] = system: RPMI-8226 leukemia
[19] = system: M14 melanoma
[20] = system: NCI-H460 lung
[21] = system: T-47D breast
[22] = system: UACC-62 melanoma
[23] = system: OVCAR-8 ovarian
[24] = system: COLO 205 colon
[25] = system: CCRF-CEM leukemia
[26] = system: HT29 colon
[27] = system: MDA-N
[28] = system: SNB-19 CNS
[29] = system: K-562 leukemia
[30] = system: HCT-15 colon
[31] = system: SK-MEL-5 melanoma
[32] = system: KM12 colon
[33] = system: UO-31 renal
[34] = system: UACC-257 melanoma
[35] = system: RXF 393 renal
[36] = system: HS 578T breast
[37] = system: SW-620 colon
[38] = system: HL-60(TB) leukemia
[39] = system: HCC-2998 colon
[40] = system: NCI-H226 lung
[41] = system: NCI/ADR-RES ovarian
[42] = system: SK-OV-3 ovarian
[43] = system: TK-10 renal
[44] = system: BT-549 breast
[45] = system: NCI-H23 lung
[46] = system: MDA-MB-435
[47] = system: SR leukemia
[48] = system: SK-MEL-2 melanoma
[49] = system: MALME-3M melanoma
[50] = system: 786-0 renal
[51] = system: HCT-116 colon
[52] = system: OVCAR-5 ovarian
[53] = system: DU-145 prostate
[54] = system: PC-3 prostate
[55] = system: U251 CNS
[56] = system: SF-539 CNS
[57] = system: HOP-62 NSCLC
[58] = system: HOP-92 NSCLC
[59] = system: A549 NSCLC

COc1ccc2nc3c([N+](=O)[O-])ccc4c3c(c2c1)N(CCCN(C)C)C(=S)N4CCCN(C)C
TGI [1]: 7.58 µM
TGI [2]: 29.3 µM
TGI [3]: 70.7 µM
TGI [4]: 17.9 µM
TGI [5]: 35.3 µM
TGI [6]: 22.6 µM
TGI [7]: 21.2 µM
TGI [8]: 19.2 µM
TGI [9]: > 100 µM
TGI [10]: 37.4 µM
TGI [11]: 19.2 µM
TGI [12]: 29.1 µM
TGI [13]: 19.5 µM
TGI [14]: 31 µM
TGI [15]: 24.3 µM
TGI [16]: 33.5 µM
TGI [17]: 14.4 µM
TGI [18]: 22.8 µM
TGI [19]: 20.4 µM
TGI [20]: 9.75 µM
TGI [21]: 43 µM
TGI [22]: 34.4 µM
TGI [23]: 21.5 µM
TGI [24]: 6.01 µM
TGI [25]: > 100 µM
TGI [26]: 11.2 µM
TGI [27]: 21.3 µM
TGI [28]: 25.8 µM
TGI [29]: > 40 µM
TGI [30]: 28.7 µM
TGI [31]: 12.3 µM
TGI [32]: 10.2 µM
TGI [33]: 25.9 µM
TGI [34]: 15.5 µM
TGI [35]: 22.9 µM
TGI [36]: 31.1 µM
TGI [37]: 16.4 µM
TGI [38]: > 100 µM
TGI [39]: 10.1 µM
TGI [40]: 22.4 µM
TGI [41]: 24.4 µM
TGI [42]: 34.4 µM
TGI [43]: 23.8 µM
TGI [44]: 30.8 µM
TGI [45]: 30 µM
TGI [46]: 19.1 µM
TGI [47]: > 100 µM
TGI [48]: 34.2 µM
TGI [49]: 12.4 µM
TGI [50]: 15.7 µM
TGI [51]: 15.9 µM
TGI [52]: 34.6 µM
TGI [53]: 20.2 µM
TGI [54]: 18 µM
TGI [55]: 20.2 µM
TGI [56]: 22 µM
TGI [57]: 22.7 µM
TGI [58]: 21.3 µM
TGI [59]: 22.2 µM

Source: PubChem BioAssay (NCI)
